Results taken from patent US20170152258A9, “Substituted Pyridopyrazines as Syk Inhibitors” (HUTCHISON MEDIPHARMA LIMITED, priority 2012, published 2017).

How the values were obtained:
[1] = biological target: Syk kinase (Homo sapiens, UniProt P43405); test: SYK Enzymatic Assay (Z-LYTE Tyr 2 peptide); assay type: biochemical; details: 8 concentrations 1 μM down to 0.0003 μM
Experimental: Syk kinase assay are performed in vitro using Kit-Tyr 2 Peptide (Invitrogen, Cat. No. PV3191) and in a 384-well assay plate. […] The 384-well assay plate (Corning, Cat. No. 3575) is mixed and incubated at room temperature for 1 hour. 10 μL of the Development Solution (prepared by diluting Development Reagent A (Cat. No. PV3297) to 1/32 with Development Buffer (Cat. No. PV3127)) is then added to each well, mixed and incubated at room temperature for another 1 hour. The reactions are then stopped by adding 10 μL of the Stop Reagent (Invitrogen, Cat. No. PV3094), and the plate is read with Wallac 1420 VICTOR^3 Multilabel Counter (PerkinElmer™) at 445 nm and 520 nm fluorescence. All compounds are tested at 8 concentrations (1 μM down to 0.0003 μM) using a 1:3 serial dilution scheme.

[2] = tested on: RBL-2H3 cells; test: IgE-induced Beta-hexosaminidase secretion in RBL-2H3 cells; assay type: cell-based; details: DNP-BSA stimulation
Experimental: For the determination of IgE-induced Beta-hexosaminidase secretion, RBL-2H3 cells (SIBS) are seeded in 96 well plates at 4×10^4 cells per well and incubated in MEM media with 15% FBS and Glutamine ([…]) for 4 hours and sensitized with 0.5 ug/ml of SPE-7 overnight. Cells are washed 3 times with Tyrode's buffer and incubated in the presence or absence of various concentrations of the testing compound for 20 min at 37° C., 5% CO2. Cells are stimulated by adding 10 uL of DNP-BSA solution (150 ng/mL) to each well and incubating for 45 minutes at 37° C., 5% CO2. Then, 45 μL of the supernatant is taken and incubated with 100 μL of 1 mM 4-Nitrophenyl N-acetyl-β-D-glucosaminide (Sigma, Cat. No. N9376), which is diluted in 0.05 M citrate buffer (pH 4.5), for 1.5 hr at 37° C. The reactions are quenched by adding 185 μL of 0.05 M sodium carbonate buffer (pH 10.0). Plates are read at 405 nm on Multiskan (MK 3).

[3] = Rattus norvegicus, RBL-2H3, IgE-induced Beta-hexosaminidase secretion
[4] = IgE-induced Beta-hexosaminidase secretion

| SMILES | IC50 [1] [µM] | IC50 [2, 3] [µM] | IC50 [2, 4] [µM] |
| --- | --- | --- | --- |
| CC(=O)N1CCO[C@H](COc2nc(-c3ccc(N(C)C)cc3)cc3nccnc23)C1 [Compound 67] | 0.052 | 0.089 | – |
| CC(C)C(=O)N1CCO[C@H](COc2nc(-c3ccc(N(C)C)cc3)cc3nccnc23)C1 [Compound 68] | 0.063 | 0.11 | – |
| CN(C)c1ccc(-c2cc3nccnc3c(OC[C@@H]3CN(C(=O)C4CC4)CCO3)n2)cc1 [Compound 69] | 0.039 | 0.062 | – |
| CN(C)c1ccc(-c2cc3nccnc3c(OC[C@@H]3CN(C(=O)CC4CC4)CCO3)n2)cc1 [Compound 70] | 0.099 | 0.213 | – |
| CN(C)c1ccc(-c2cc3nccnc3c(OC[C@@H]3CN(C(=O)C4CC(F)(F)C4)CCO3)n2)cc1 [Compound 71] | 0.127 | 0.335 | – |
| CN(C)c1ccc(-c2cc3nccnc3c(OC[C@@H]3CN(C(=O)[C@@H]4CCOC4)CCO3)n2)cc1 [Compound 72] | 0.109 | 0.188 | – |
| CN(C)c1ccc(-c2cc3nccnc3c(OC[C@@H]3CN(C(=O)[C@H]4CC[C@H](O)CC4)CCO3)n2)cc1 [Compound 74] | 0.127 | 0.186 | – |
| CN(C)c1ccc(-c2cc3nccnc3c(OC[C@@H]3CN(C(=O)[C@H]4CC[C@@H](O)CC4)CCO3)n2)cc1 [Compound 75] | 0.095 | 0.131 | – |
| CN(C)c1ccc(-c2cc3nccnc3c(OC[C@@H]3CN(C(=O)CC#N)CCO3)n2)cc1 [Compound 76] | 0.04 | 0.088 | – |
| CN(C)c1ccc(-c2cc3nccnc3c(OC[C@@H]3CN(C(=O)CCC#N)CCO3)n2)cc1 [Compound 77] | 0.085 | 0.202 | – |
| CN(C)c1ccc(-c2cc3nccnc3c(OC[C@@H]3CN(C(=O)c4cccnc4)CCO3)n2)cc1 [Compound 78] | 0.061 | 0.074 | – |
| CN(C)c1ccc(-c2cc3nccnc3c(OC[C@@H]3CN(C(=O)Cc4c[nH]cn4)CCO3)n2)cc1 [Compound 84] | 0.081 | 0.316 | – |
| CN(C)c1ccc(-c2cc3nccnc3c(OC[C@@H]3CN(C(=O)c4ncc[nH]4)CCO3)n2)cc1 [Compound 86] | 0.11 | 0.616 | – |
| CN(C)c1ccc(-c2cc3nccnc3c(OC[C@@H]3CN(C(=O)c4cnn(C)c4)CCO3)n2)cc1 [Compound 87] | 0.06 | 0.2 | – |
| CN(C)c1ccc(-c2cc3nccnc3c(OC[C@@H]3CN(S(=O)(=O)c4cccnc4)CCO3)n2)cc1 [Compound 92] | 0.076 | 0.072 | – |
| CN(C)c1ccc(-c2cc3nccnc3c(OC[C@@H]3CN(C(=O)C4CCCC4)CCO3)n2)cc1 [Compound 98] | 0.055 | 0.23 | – |
| CN(C)c1ccc(-c2cc3nccnc3c(OC[C@@H]3CN(C(=O)C(F)F)CCO3)n2)cc1 [Compound 100] | 0.031 | 0.068 | – |
| Cc1nccn1CCS(=O)(=O)N1CCO[C@H](COc2nc(-c3ccc(N(C)C)cc3)cc3nccnc23)C1 [Compound 101, (S)—N,N-dimethyl-4-(5-((4-(2-(2-methyl-1H-imidazol-1-yl)ethylsulfonyl)morpholin-2-yl)methoxy)pyrido[4,3-b]pyrazin-7-yl)aniline] | 0.052 | 0.503 | – |
| CN(CC#N)CCS(=O)(=O)N1CCO[C@H](COc2nc(-c3ccc(N(C)C)cc3)cc3nccnc23)C1 [Compound 104] | 0.038 | 0.127 | – |
| CN(C)c1ccc(-c2cc3nccnc3c(OC[C@@H]3CN(S(C)(=O)=O)CCO3)n2)cc1Cl [Compound 108] | 0.019 | 0.052 | – |

Next, values leading:

| IC50 [1] [µM] | IC50 [2, 3] [µM] | IC50 [2, 4] [µM] | SMILES |
| --- | --- | --- | --- |
| 0.031 | 0.99 | – | CS(=O)(=O)N1CCO[C@H](COc2nc(-c3ccc(C4CCN(CCO)CC4)cc3)cc3nccnc23)C1 [Compound 58, (S)-2-(4-(4-(5-((4-(methylsulfonyl)morpholin-2-yl)methoxy)pyrido[3,4-b]pyrazin-7-yl)phenyl)piperidin-1-yl)ethanol] |
| 0.03 | 0.117 | – | COCCN1CCC(c2ccc(-c3cc4nccnc4c(OC[C@@H]4CN(S(C)(=O)=O)CCO4)n3)cc2)CC1 [Compound 59] |
| 0.027 | 0.029 | – | O=C(C(F)F)N1CCO[C@H](COc2nc(-c3ccc(N4CCOCC4)cc3)cc3nccnc23)C1 [Compound 61] |
| 0.024 | 0.097 | – | NS(=O)(=O)N1CCO[C@H](COc2nc(-c3ccc(N4CCOCC4)cc3)cc3nccnc23)C1 [Compound 62] |
| 0.037 | 0.342 | – | NC(=O)N1CCO[C@H](COc2nc(-c3ccc(N4CCOCC4)cc3)cc3nccnc23)C1 [Compound 63] |
| 0.02 | 0.487 | – | CN1CCN(c2ccc(-c3cc4nccnc4c(OC[C@@H]4CN(S(N)(=O)=O)CCO4)n3)cc2)CC1 [Compound 64] |
| 0.053 | 0.181 | – | CN(C)CCS(=O)(=O)N1CCO[C@H](COc2nc(-c3ccc(N4CCOCC4)cc3)cc3nccnc23)C1 [Compound 65] |
| 0.058 | 0.23 | – | COCCS(=O)(=O)N1CCO[C@H](COc2nc(-c3ccc(N4CCOCC4)cc3)cc3nccnc23)C1 [Compound 66] |
| 0.204 | 0.142 | – | CN(C)c1ccc(-c2cc3nccnc3c(OC[C@@H]3CN(C(=O)C4CCOCC4)CCO3)n2)cc1 [Compound 73] |
| 0.074 | 0.092 | – | O=S(=O)(C1CC1)N1CCO[C@H](COc2nc(-c3ccc(N4CCOCC4)cc3)cc3nccnc23)C1 [Compound 83] |
| 0.032 | 0.098 | – | CCS(=O)(=O)N1CCO[C@H](COc2nc(-c3ccc(N(C)C)cc3)cc3nccnc23)C1 [Compound 88] |
| 0.096 | 0.207 | – | CC(C)S(=O)(=O)N1CCO[C@H](COc2nc(-c3ccc(N(C)C)cc3)cc3nccnc23)C1 [Compound 89] |
| 0.046 | 0.061 | – | CN(C)c1ccc(-c2cc3nccnc3c(OC[C@@H]3CN(S(=O)(=O)C4CC4)CCO3)n2)cc1 [Compound 90] |
| 0.015 | 0.022 | 0.04 | CN(C)c1ccc(-c2cc3nccnc3c(OC[C@@H]3CN(S(C)(=O)=O)CCO3)n2)cc1 [Compound 94] |
| 0.031 | 0.049 | 0.071 | CN(C)c1ccc(-c2cc3nccnc3c(OC[C@@H]3CN(C(=O)[C@H]4CCOC4)CCO3)n2)cc1 [Compound 95] |
| 0.023 | 0.106 | – | CNC(=O)CS(=O)(=O)N1CCO[C@H](COc2nc(-c3ccc(N(C)C)cc3)cc3nccnc23)C1 [Compound 99] |
| 0.038 | 0.108 | – | CN(C)c1ccc(-c2cc3nccnc3c(OC[C@@H]3CN(S(=O)(=O)CCN4CC[C@@H](O)C4)CCO3)n2)cc1 [Compound 102] |
| 0.032 | 0.325 | – | CN(C)c1ccc(-c2cc3nccnc3c(OC[C@@H]3CN(S(=O)(=O)CCN4CC[C@H](O)C4)CCO3)n2)cc1 [Compound 103] |
| 0.039 | 0.077 | – | Cn1ncc2cc(-c3cc4nccnc4c(OC[C@@H]4CN(S(C)(=O)=O)CCO4)n3)ccc21 [Compound 105] |
| 0.097 | 0.131 | – | CS(=O)(=O)N1CCO[C@H](COc2nc(-c3ccc4c(c3)OCCO4)cc3nccnc23)C1 [Compound 109] |
| 0.211 | 0.163 | – | CS(=O)(=O)N1CCO[C@H](COc2nc(-c3ccc4c(c3)OCO4)cc3nccnc23)C1 [Compound 110] |
| 0.117 | 0.119 | – | CS(=O)(=O)N1CCO[C@H](COc2nc(-c3ccc4ncccc4c3)cc3nccnc23)C1 [Compound 111] |
